Assay results from patent publication US9962452B2, “Soluble complexes of drug analogs and albumin” (Zhuhai Beihai Biotech Co., Ltd., priority 2013, dated 2018).

Biological target: Human serum albumin (HSA) (Homo sapiens, UniProt P02768)
Assay: HSA-Binding Assay (equilibrium dialysis, LC-MS/MS)
Conditions: isolated protein
Protocol: Equilibrium dialysis was performed in a 24-well BD Gentest Serum Binding System (BD Biosciences, Woburn, Mass.). Human serum albumin (HSA) at 0.6 mM was prepared by dissolving in phosphate buffered saline (PBS: 4.01 mL 1 M K2HPO4+0.99 mL 1 M KH2PO4+1.37 mL 5 M NaCl+43.63 mL water). After washing and soaking the 24-well BD Gentest Serum Binding System with water, 30% ethanol, and PBS, 750 μL of HSA and 250 μL of PBS were dispensed into each donor and receiver well, respectively. 3.75 μL of 1 mM test compound or wafarin (as control) was spiked into HSA in each donor well. The duplicate incubations were performed at 37° C. for 20 hrs.
After incubation, HSA and buffer samples collected from donor and receiver wells, together with calibration standard samples, were prepared in 96-well plates as shown in Table 2.
The plates were then capped, vortexed, and centrifuged at 3500 rpm for 10 minutes. The supernatant was injected into LC-MS/MS. Sample analysis was performed on an LC/MS/MS system composed of Shimadzu Prominence pumps, SIL-20ACHT autosampler, and Applied Biosystems/MDS Sciex API 3200.

SMILES	fraction unbound at 20 h, 5 μM
CCCCC(NC(=O)CCC(=O)O[C@]1(CC)C(=O)OCc2c1cc1n(c2=O)Cc2c-1nc1ccc(O)cc1c2CC)C(=O)O (stereo partly drawn) [FL-040]	0.016
CCc1c2c(nc3ccc(O)cc13)-c1cc3c(c(=O)n1C2)COC(=O)[C@@]3(CC)OC(=O)CCC(=O)N[C@@H](CC(C)C)C(=O)O [FL-043]	0.03
CCc1c2c(nc3ccc(OC(=O)CCC(=O)N[C@@H](CC(C)C)C(=O)O)cc13)-c1cc3c(c(=O)n1C2)COC(=O)[C@@]3(CC)OC(=O)CCC(=O)N[C@@H](CC(C)C)C(=O)O [FL-041]	< 0.022
CCCCCCCCCCCCCCCCC(NC(=O)CCC(=O)O[C@]1(CC)C(=O)OCc2c1cc1n(c2=O)Cc2c-1nc1ccc(O)cc1c2CC)C(=O)O (stereo partly drawn) [FL-003]	< 0.001
CCCCCCC(NC(=O)CCC(=O)Oc1ccc2nc3c(c(CC)c2c1)Cn1c-3cc2c(c1=O)COC(=O)[C@@]2(CC)OC(=O)CCC(=O)NC(CCCCCC)C(=O)O)C(=O)O (stereo partly drawn) [FL-037]	< 0.023
CCCCC(NC(=O)CCC(=O)Oc1ccc2nc3c(c(CC)c2c1)Cn1c-3cc2c(c1=O)COC(=O)[C@@]2(CC)OC(=O)CCC(=O)NC(CCCC)C(=O)O)C(=O)O (stereo partly drawn) [FL-038]	< 0.168
